Measured values: US10654896B2, “FoxP3-binding peptides and uses thereof” (FUNDACIÓN PARA LA INVESTIGACIÓN MÉDICA APLICADA, priority 2016, dated 2020)
Where a SMILES comes first, the peptide text is derived from it. [ ]: non-standard residue; d: D form.

What follows are compounds tested on murine Treg (CD25+ T cells) (assay: In vitro Treg suppression assay ([3H]-thymidine, anti-CD3)). Conditions: peptide 100 μM.
Format: cell-based, BALB/c mice
Procedure: Spleen was harvested from BALB/c mice (Harlan Laboratories) and homogenized with a 1-ml syringe through a 100-μm cell strainer into a 50-ml conical tube and rinsed two times with PBS (Calcium free) to recover all cells. Cell homogenate was centrifuged at 300×g for 10 min and resuspended homogenate in 1 ml ACK Lysis buffer solution per spleen. Gently swirled for 2 min and then the reaction was quenched by adding 12 ml of PBS.
Cells were centrifuged at 300×g for 10 min and purification of CD25− and CD25+ cells was carried out using magnetic beads (Miltenyi, CD25 microbead kit MOUSE, Ref 130-091-072)), following manufacturer's instructions. After labelling the cells, they were purified using Automacs-Pro device following manufacturer's instructions. Negative fraction corresponded to CD25− cells, which was used as effector Tconv cells. Positive fraction corresponded to CD25+ T cells that was used as Treg cells. Flow cytometry using anti-CD25-APC labeled and anti-CD4-FITC labelled antibodies was used to confirm the purity of isolated cells. Foxp3 expression was analyzed using the anti-Foxp3 staining antibody labelled with APC according to manufacturer's instructions (eBioscience). Purified cells were washed, resuspended in culture medium and diluted in T-cell culture medium (RPMI 1640, supplemented with 10% Fetal bovine serum and antibiotics) at a concentration of 2×10^5/ml (for Tregs) and 2×10^6/ml (for Tconv), for the assay (See below)
The first in vitro assays to measure regulatory T-cell (Treg) function were described by two groups over a decade ago. […] With this knowledge, it was shown that CD4+CD25+ T cells could potently suppress the proliferation of activated CD4+CD25− and CD8+ T cells when the populations were cocultured in vitro. The following protocol describes a basic type of in vitro Treg suppression assay where Treg function is measured in the absence of antigen-presenting cells (APCs). In this protocol, activation is mediated by anti-CD3 antibodies and includes only two cell types, the target Tconv and Tregs. In this protocol, the experiment is setup in a 96-well round-bottom plate in a total volume of 200 μl. All reagents are prepared at four times their desired final concentration and added to assay in 50 μl such that the total volume is 200 μl, thus obtaining the desired final concentration of reactives. Purified Tregs and Tconv prepared as described above were diluted and adjusted in T-cell culture medium to 2×10^5/ml and 2×10^6/ml, respectively. In round-bottom 96-well plate, Tregs and Tconv were added in 50 μl of culture media each (RPMI 1640, supplemented with 10% Fetal bovine serum, and antibiotics). Anti-CD3 antibody was added in 50 μl (final concentration will be 2.5 μg/ml) as a stimulus to induce T cell proliferation. 50 μL of each one of the peptides to be tested were added in the corresponding wells at a concentration of 100 μM and those which provided the best results were tested again at lower concentrations to determine the IC50 value. The final volume was 200 μl in all wells. Tconv alone, Tconv plus anti-CD3, Tconv+anti-CD3+ Treg or Tconv+anti-CD3+Treg+peptides were tested by quadruplicate. Tconv plus anti-CD3 with no Treg was used to determine maximum proliferation of Tconv whereas Tconv+anti-CD3+ Treg was used to determine Treg inhibition. Plates were incubated at 37° C., 5% CO2 for 72 h and then pulsed with 0.1 μCi [^3H]-thymidine (in 25 μl of culture medium per well). After 8 h of incubation, cell cultures were harvested with a cell harvester (Perkin Elmer) and using unifilter plates. Plates were then dried at 50° C., and scintillation reagent (25 μl)(Microscint, Perkin Elmer) was added to each well. Counts per minute (cpm) were determined with a direct beta counter (TopCount, Perkin Elmer).
The results of in vitro Treg suppression assays are most commonly reported as cpm when [^3H]-thymidine is incorporated into proliferating cells. […]
In the case of H-RDFQSFRKMWPFFAM-OH [compound 1], the “Treg inhibition - % inhibition (100 μM)” value is reported as 115.6%.

Same assay, conditions: read-out: IC50 (peptide concentration able to inhibit 50% of Treg activity)
H-RDFQSFRKMWPFFAM-OH [compound 1] showed an IC50 of 38.3 µM.
`CSCC[C@H](NC(=O)[C@H](C)NC(=O)[C@H](Cc1ccccc1)NC(=O)[C@H](Cc1ccccc1)NC(=O)[C@@H]1CCCN1C(=O)[C@H](Cc1c[nH]c2ccccc12)NC(=O)[C@H](CCSC)NC(=O)[C@H](CCCCN)NC(=O)[C@H](CCCNC(=N)N)NC(=O)[C@H](Cc1ccccc1)NC(=O)[C@H](CO)NC(=O)[C@H](CCC(N)=O)NC(=O)[C@H](Cc1ccccc1)NC(=O)[C@@H](CC(=O)O)NC(=O)[C@@H](N)CCCNC(=N)N)C(=O)O` [compound 3] (H-R[dD]FQSFRKMWPFFAM-OH) was tested, and the IC50 was 27.2 µM.
`CSCC[C@H](NC(=O)[C@H](CCCCN)NC(=O)[C@H](CCCNC(=N)N)NC(=O)[C@H](Cc1ccccc1)NC(=O)[C@H](CO)NC(=O)[C@H](CCC(N)=O)NC(=O)[C@H](Cc1ccccc1)NC(=O)[C@H](C)NC(=O)[C@H](N)CCCNC(=N)N)C(=O)N[C@@H](Cc1c[nH]c2ccccc12)C(=O)N1CCC[C@H]1C(=O)N[C@@H](Cc1ccccc1)C(=O)N[C@@H](Cc1ccccc1)C(=O)N[C@@H](C)C(=O)N[C@H](CCSC)C(=O)O` [compound 48] (H-[dR]AFQSFRKMWPFFA[dM]-OH; N-terminus and C-terminus assumed) was tested, and the IC50 was 20 µM.
For `CSCC[C@H](NC(=O)[C@H](CCCCN)NC(=O)[C@H](CCCNC(=N)N)NC(=O)[C@H](Cc1ccccc1)NC(=O)[C@H](CO)NC(=O)[C@H](CCC(N)=O)NC(=O)[C@H](Cc1ccccc1)NC(=O)[C@H](C)NC(=O)[C@@H](N)CCCNC(=N)N)C(=O)N[C@@H](Cc1c[nH]c2ccccc12)C(=O)N1CCC[C@H]1C(=O)N[C@@H](Cc1ccccc1)C(=O)N[C@@H](Cc1ccccc1)C(=O)N[C@@H](C)C(=O)N[C@H](CCSC)C(=O)O` [compound 47] (H-RAFQSFRKMWPFFA[dM]-OH; N-terminus and C-terminus assumed), the IC50 was 35 µM.
`CSCC[C@H](NC(=O)[C@H](C)NC(=O)[C@H](Cc1ccccc1)NC(=O)[C@H](Cc1ccccc1)NC(=O)[C@@H]1CCCN1C(=O)[C@H](Cc1c[nH]c2ccccc12)NC(=O)[C@H](CCSC)NC(=O)[C@H](CCCCN)NC(=O)[C@H](CCCNC(=N)N)NC(=O)[C@H](Cc1ccccc1)NC(=O)[C@H](CO)NC(=O)[C@H](CCC(N)=O)NC(=O)[C@H](Cc1ccccc1)NC(=O)[C@H](C)NC(=O)[C@H](N)CCCNC(=N)N)C(=O)O` [compound 46] (H-[dR]AFQSFRKMWPFFAM-OH; N-terminus and C-terminus assumed) was tested, and the IC50 was 12.5 µM.
Compound `CSCC[C@@H]1NC(=O)[C@H](C)NC(=O)[C@H](Cc2ccccc2)NC(=O)[C@H](Cc2ccccc2)NC(=O)[C@@H]2CCCN2C(=O)[C@H](Cc2c[nH]c3ccccc23)NC(=O)[C@H](CCSC)NC(=O)[C@H](CCCCN)NC(=O)[C@H](CCCNC(=N)N)NC(=O)[C@H](Cc2ccccc2)NC(=O)[C@H](C)NC(=O)[C@H](CCC(N)=O)NC(=O)[C@H](Cc2ccccc2)NC(=O)[C@H](C)NC(=O)[C@H](CCCNC(=N)N)NC1=O` [compound 50] (cyclo(RAFQAFRKMWPFFAM)) has an IC50 of 0.8 µM.
